Measured values published in patent US10231954B2, “Neurodegenerative therapies” (LYTIX BIOPHARMA AS, priority 2014, dated 2019).

Key:
Type in all cases: biochemical
DYRK1A = DYRK1A (Homo sapiens, UniProt Q13627); assay: Determination of IC50 values against DYRK1a; settings: average of duplicate; 10 concentrations 100 μM to 0.003 μM; read-out: IC 50 against DYRK1a
Protocol: The kinase assay was carried out using Multidrop 384's at room temperature in a total assay volume of 25.5 μl. To plates containing 0.5 μl of compounds, DMSO controls or acid blanks, 15 μl of an enzyme mix containing the DYRK1a enzyme and peptide/protein substrate in buffer was added. Compounds were pre-incubated in the presence of the enzyme and peptide/protein substrate for 5 minutes before initiation of the reaction by addition of 10 μl of ATP (final concentration selected for each kinase at 5, 20 or 50 μM). Assays were carried out for 30 minutes at room temperature before termination by the addition of 5 μl orthophosphoric acid. The assay plates were then harvested onto P81 Unifilter Plates by a Packard Harvester (wash buffer is 50 mM orthophosphoric acid) and dried in air. The dry Unifilter plates were then sealed by the addition of MicroScint O and counted in Packard Topcount NXT scintillation counters.

ROCK 2 = ROCK 2 (Homo sapiens, UniProt O75116); assay: Kinase profiling ROCK 2; settings: 100 micromolar inhibitor concentration; 100 is no change
Text: (§1) Any value less that 25 is considered to be highly significant inhibition.

PKA = PKA (Homo sapiens, UniProt P17612); assay: Kinase profiling PKA; settings: 100 micromolar inhibitor concentration; 100 is no change
Text: as §1

PKD1 = target: T1, PKD1 (Homo sapiens, UniProt Q15139); assay: Kinase profiling PKD1; settings: 100 micromolar inhibitor concentration; 100 is no change
T1 sequence (Q15139 1-912): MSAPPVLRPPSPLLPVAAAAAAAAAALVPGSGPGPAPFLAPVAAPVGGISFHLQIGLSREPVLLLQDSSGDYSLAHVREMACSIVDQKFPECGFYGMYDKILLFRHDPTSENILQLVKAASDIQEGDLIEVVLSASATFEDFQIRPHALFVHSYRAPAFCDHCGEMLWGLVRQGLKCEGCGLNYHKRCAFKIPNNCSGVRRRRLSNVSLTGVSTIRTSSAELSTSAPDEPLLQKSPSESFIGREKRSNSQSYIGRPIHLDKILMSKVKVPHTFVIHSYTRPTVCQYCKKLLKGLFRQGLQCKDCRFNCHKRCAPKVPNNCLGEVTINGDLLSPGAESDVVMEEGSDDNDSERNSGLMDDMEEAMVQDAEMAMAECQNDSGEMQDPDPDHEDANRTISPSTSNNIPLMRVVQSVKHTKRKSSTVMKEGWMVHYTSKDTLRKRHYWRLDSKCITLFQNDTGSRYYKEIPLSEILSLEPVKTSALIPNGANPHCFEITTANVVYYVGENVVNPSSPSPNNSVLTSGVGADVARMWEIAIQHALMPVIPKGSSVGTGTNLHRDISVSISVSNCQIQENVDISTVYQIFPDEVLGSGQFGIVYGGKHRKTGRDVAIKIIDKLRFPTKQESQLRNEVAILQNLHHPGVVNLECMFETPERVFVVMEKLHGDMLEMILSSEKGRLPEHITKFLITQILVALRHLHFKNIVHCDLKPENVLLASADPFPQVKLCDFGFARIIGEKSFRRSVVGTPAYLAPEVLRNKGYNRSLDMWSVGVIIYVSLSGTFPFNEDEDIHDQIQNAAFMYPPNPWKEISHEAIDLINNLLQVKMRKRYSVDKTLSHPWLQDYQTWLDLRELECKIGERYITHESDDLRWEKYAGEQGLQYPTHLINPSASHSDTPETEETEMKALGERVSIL
Text: as §1

RSK1 = RSK1 (Homo sapiens, UniProt Q15418); assay: Kinase profiling RSK1; settings: 100 micromolar inhibitor concentration; 100 is no change
Text: as §1

SGK1 = target: T2, SGK1 (Homo sapiens, UniProt O00141); assay: Kinase profiling SGK1; settings: 100 micromolar inhibitor concentration; 100 is no change
T2 sequence (O00141 1-431): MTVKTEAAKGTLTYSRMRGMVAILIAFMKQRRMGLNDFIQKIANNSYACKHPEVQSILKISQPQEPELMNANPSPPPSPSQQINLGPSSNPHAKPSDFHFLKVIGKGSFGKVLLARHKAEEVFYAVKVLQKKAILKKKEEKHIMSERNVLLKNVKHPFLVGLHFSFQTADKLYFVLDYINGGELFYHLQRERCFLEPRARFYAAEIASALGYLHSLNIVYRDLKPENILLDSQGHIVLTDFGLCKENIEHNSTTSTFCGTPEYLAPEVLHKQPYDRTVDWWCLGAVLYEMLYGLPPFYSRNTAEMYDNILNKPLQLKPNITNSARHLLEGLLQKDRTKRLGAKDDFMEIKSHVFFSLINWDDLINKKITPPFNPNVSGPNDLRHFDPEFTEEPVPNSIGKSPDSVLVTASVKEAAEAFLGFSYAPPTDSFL
Text: as §1

PKCa = PKCa (Homo sapiens, UniProt P17252); assay: Kinase profiling PKCa; settings: 100 micromolar inhibitor concentration; 100 is no change
Text: as §1

S6K1 = S6K1 (Homo sapiens, UniProt P23443); assay: Kinase profiling S6K1; settings: 100 micromolar inhibitor concentration; 100 is no change
Text: as §1

PRK2 = PRK2 (Homo sapiens, UniProt Q16513); assay: Kinase profiling PRK2; settings: 100 micromolar inhibitor concentration; 100 is no change
Text: as §1

PKBa = PKBa (Homo sapiens, UniProt P31749); assay: Kinase profiling PKBa; settings: 100 micromolar inhibitor concentration; 100 is no change
Text: as §1

p38a MAPK = p38a MAPK (Homo sapiens, UniProt Q16539); assay: Kinase profiling p38a MAPK; settings: 100 micromolar inhibitor concentration; 100 is no change
Text: as §1

MKK1 = MKK1 (Homo sapiens, UniProt Q02750); assay: Kinase profiling MKK1; settings: 100 micromolar inhibitor concentration; 100 is no change
Text: as §1

JNK1 = JNK1 (Homo sapiens, UniProt P45983); assay: Kinase profiling JNK1; settings: 100 micromolar inhibitor concentration; 100 is no change
Text: as §1

PDK1 = target: T3, PDK1 (Homo sapiens, UniProt O15530); assay: Kinase profiling PDK1; settings: 100 micromolar inhibitor concentration; 100 is no change
T3 sequence (O15530 1-556): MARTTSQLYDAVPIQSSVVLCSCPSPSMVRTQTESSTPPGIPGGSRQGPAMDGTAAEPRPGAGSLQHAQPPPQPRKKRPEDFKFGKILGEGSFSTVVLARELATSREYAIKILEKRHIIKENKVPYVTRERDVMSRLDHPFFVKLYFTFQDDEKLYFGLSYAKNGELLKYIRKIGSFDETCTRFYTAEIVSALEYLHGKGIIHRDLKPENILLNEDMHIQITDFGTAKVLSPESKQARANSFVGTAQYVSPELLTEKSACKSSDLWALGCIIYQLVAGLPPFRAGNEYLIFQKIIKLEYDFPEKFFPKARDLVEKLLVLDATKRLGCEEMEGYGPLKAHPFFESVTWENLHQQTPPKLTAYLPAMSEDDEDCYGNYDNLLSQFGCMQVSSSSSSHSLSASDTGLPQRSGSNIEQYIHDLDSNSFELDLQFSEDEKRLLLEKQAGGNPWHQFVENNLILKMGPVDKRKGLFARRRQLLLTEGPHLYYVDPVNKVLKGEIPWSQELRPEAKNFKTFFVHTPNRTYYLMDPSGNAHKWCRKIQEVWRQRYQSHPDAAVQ
Text: as §1

Chain of PRK2 (Q16513 whole entry, species assumed): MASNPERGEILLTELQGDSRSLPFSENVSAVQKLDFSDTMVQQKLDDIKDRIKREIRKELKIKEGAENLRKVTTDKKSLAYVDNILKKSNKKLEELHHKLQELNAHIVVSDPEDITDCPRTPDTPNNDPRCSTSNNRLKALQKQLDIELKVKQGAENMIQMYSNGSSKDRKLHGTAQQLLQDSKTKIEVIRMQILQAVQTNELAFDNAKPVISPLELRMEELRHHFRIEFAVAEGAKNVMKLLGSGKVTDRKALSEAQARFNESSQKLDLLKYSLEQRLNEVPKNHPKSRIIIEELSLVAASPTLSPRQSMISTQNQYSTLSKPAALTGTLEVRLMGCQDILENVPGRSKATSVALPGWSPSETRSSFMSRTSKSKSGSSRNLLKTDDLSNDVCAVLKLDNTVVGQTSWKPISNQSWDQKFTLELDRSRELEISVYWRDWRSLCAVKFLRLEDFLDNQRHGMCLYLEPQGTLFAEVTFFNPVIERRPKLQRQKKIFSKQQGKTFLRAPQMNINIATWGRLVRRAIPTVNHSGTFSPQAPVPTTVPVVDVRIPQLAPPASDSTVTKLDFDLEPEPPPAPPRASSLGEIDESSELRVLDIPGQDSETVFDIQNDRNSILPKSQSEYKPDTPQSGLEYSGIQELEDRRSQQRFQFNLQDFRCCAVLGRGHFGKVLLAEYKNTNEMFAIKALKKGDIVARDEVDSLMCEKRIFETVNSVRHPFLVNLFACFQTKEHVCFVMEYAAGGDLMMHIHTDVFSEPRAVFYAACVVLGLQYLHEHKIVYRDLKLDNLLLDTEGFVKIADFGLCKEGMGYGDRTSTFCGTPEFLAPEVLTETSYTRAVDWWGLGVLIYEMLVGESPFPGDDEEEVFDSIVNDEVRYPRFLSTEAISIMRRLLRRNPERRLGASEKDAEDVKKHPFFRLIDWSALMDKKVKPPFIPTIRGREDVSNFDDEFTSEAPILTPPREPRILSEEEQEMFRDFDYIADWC
Chain of ROCK 2 (O75116 whole entry, species assumed): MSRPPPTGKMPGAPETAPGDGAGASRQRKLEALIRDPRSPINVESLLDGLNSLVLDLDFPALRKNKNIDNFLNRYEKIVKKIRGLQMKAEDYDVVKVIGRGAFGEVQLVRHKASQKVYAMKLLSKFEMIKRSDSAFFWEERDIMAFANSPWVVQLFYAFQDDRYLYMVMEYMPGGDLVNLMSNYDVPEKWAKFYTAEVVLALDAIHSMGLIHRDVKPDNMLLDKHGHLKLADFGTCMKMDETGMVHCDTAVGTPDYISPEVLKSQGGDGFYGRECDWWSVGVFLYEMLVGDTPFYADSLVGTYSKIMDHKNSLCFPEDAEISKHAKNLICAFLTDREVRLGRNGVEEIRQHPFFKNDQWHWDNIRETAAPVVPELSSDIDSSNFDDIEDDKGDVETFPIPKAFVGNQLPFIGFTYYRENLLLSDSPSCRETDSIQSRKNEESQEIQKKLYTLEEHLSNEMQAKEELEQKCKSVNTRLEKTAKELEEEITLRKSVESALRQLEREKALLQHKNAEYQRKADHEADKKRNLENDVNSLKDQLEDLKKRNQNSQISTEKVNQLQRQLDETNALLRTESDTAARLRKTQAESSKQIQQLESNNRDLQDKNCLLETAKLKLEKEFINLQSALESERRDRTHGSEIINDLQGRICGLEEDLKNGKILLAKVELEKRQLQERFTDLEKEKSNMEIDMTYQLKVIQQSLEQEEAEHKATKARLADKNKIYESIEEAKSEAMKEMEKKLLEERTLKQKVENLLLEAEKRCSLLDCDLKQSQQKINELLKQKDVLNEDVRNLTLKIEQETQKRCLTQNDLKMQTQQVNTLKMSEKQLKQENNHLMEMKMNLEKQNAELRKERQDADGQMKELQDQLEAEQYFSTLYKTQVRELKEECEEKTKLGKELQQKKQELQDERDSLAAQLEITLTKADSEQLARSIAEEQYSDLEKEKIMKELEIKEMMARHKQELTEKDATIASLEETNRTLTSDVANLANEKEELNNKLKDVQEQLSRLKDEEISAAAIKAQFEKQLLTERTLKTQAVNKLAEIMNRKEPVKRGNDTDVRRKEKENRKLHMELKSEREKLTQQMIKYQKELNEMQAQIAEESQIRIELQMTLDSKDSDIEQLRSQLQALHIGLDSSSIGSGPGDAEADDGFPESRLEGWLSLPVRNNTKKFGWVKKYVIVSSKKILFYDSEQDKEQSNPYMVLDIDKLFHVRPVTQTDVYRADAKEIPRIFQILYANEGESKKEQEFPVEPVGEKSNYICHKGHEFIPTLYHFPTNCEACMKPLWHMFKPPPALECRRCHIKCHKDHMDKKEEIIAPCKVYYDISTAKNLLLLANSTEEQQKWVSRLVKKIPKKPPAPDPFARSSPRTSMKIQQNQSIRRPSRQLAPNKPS
Chain of JNK1 (P45983 whole entry, species assumed): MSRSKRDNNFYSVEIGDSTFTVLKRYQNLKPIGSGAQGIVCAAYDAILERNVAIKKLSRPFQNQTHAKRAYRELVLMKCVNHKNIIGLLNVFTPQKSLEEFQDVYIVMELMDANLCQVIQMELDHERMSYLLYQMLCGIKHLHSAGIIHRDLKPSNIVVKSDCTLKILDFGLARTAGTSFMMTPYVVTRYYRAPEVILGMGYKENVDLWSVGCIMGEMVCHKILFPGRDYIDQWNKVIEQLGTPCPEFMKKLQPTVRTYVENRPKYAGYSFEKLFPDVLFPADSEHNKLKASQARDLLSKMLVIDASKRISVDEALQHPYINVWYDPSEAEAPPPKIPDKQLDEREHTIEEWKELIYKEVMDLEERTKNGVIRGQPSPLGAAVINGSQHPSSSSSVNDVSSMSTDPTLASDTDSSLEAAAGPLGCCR
Chain of RSK1 (Q15418 whole entry, species assumed): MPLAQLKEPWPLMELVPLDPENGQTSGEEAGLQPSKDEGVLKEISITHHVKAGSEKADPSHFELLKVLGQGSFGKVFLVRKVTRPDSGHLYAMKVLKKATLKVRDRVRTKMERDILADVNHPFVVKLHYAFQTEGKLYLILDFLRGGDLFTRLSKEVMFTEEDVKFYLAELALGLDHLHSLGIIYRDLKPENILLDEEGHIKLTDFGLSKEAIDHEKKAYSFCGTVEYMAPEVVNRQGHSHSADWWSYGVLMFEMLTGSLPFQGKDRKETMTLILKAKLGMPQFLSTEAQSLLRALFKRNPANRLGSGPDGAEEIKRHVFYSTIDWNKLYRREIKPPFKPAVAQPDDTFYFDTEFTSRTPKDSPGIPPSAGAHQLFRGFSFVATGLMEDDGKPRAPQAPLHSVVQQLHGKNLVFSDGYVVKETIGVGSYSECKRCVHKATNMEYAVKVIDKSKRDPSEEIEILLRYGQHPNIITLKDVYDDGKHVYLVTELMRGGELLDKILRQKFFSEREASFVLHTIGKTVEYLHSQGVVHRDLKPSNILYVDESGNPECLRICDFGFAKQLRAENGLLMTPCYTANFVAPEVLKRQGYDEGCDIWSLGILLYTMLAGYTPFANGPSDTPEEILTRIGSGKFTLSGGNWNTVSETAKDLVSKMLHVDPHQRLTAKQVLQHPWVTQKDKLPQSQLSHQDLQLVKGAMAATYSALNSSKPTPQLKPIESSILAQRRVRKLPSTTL
Chain of p38a MAPK (Q16539 whole entry): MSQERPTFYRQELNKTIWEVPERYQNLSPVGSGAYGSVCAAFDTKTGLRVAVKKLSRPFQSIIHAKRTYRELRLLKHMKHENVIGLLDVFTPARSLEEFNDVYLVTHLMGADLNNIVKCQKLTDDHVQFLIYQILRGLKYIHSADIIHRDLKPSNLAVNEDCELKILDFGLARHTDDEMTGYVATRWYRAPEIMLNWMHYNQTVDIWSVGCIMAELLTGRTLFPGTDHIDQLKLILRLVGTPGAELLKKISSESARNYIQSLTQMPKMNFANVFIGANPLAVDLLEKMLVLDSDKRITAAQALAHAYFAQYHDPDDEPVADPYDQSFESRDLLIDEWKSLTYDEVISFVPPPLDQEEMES
Chain of MKK1 (Q02750 whole entry, species assumed): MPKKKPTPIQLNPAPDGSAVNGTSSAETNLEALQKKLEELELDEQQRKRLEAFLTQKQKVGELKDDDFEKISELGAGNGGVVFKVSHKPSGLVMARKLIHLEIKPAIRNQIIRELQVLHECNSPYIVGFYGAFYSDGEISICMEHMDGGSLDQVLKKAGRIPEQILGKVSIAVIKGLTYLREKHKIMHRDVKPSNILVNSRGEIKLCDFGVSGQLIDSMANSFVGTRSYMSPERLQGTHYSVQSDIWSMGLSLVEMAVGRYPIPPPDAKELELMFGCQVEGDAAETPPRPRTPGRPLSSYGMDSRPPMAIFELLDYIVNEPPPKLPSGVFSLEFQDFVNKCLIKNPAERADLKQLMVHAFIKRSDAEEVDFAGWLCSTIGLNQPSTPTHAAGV

| Structure (SMILES) | IC50 (DYRK1A) [µM] | residual kinase activity, ROCK 2 (ROCK 2) | residual kinase activity, PKA (PKA) | residual kinase activity, PKD1 (PKD1) | residual kinase activity, RSK1 (RSK1) | residual kinase activity, SGK1 (SGK1) | residual kinase activity, PKCa (PKCa) | residual kinase activity, S6K1 (S6K1) | residual kinase activity, PRK2 (PRK2) | residual kinase activity, PKBa (PKBa) | residual kinase activity, p38a MAPK (p38a MAPK) | residual kinase activity, MKK1 (MKK1) | residual kinase activity, JNK1 (JNK1) | residual kinase activity, PDK1 (PDK1) |
| --- | --- | --- | --- | --- | --- | --- | --- | --- | --- | --- | --- | --- | --- | --- |
| COc1ccc2nc(NC(C)=O)sc2c1 [Compound 03-20] | 12.3 |  |  |  |  |  |  |  |  |  |  |  |  |  |
| CC(=O)Nc1ccc(C(=O)Nc2nc3ccc(O)cc3s2)cc1 [Compound 03-74] |  | 32 | 90 | 53 | 19 | 59 | 92 | 29 | 54 | 87 | 106 | 35 | 80 | 93 |
| CC(=O)Nc1nc2ccc(C(N)=O)cc2s1 [Compound 08-70] | 15.7 |  |  |  |  |  |  |  |  |  |  |  |  |  |
